Assay [1] in a line: Compound was tested for inhibition of alpha-mannosidase from jack beans. Set-up: species or system Canavalia ensiformis.
The target of assay [2] is T1, Beta-galactosidase (Aspergillus niger, UniProt P29853).
T1 sequence (P29853 whole entry): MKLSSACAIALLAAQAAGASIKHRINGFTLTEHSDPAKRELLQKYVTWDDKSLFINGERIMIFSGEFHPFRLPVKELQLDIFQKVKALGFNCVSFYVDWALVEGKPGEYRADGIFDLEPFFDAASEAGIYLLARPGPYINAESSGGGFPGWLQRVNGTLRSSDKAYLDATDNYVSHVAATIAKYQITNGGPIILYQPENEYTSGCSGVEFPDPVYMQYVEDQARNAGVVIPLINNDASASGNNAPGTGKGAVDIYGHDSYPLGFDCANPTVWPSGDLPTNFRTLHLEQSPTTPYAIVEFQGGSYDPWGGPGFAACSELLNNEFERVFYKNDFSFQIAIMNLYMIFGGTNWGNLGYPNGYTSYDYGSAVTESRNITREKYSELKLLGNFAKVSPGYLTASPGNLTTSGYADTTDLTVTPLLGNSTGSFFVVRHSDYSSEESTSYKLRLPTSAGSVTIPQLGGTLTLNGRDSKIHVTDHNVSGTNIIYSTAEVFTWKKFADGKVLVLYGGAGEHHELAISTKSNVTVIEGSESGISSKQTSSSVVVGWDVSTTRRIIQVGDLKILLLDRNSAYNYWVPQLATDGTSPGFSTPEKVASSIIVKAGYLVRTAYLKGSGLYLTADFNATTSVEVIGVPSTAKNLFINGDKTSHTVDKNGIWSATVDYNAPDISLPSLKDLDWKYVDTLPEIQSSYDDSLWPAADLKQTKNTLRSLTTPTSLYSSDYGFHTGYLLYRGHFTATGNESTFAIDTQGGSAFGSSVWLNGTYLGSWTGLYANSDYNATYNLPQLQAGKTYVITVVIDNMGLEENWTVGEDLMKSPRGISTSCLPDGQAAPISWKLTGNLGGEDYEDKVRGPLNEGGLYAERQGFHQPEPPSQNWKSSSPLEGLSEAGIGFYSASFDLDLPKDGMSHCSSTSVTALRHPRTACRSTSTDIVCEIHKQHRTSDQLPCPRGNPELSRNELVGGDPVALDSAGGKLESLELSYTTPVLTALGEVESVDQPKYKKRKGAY
In words: Compound was tested for inhibition of beta-galactosidase from aspergillus niger.

Assay [3] is described as follows: Compound was tested for inhibition of beta-N-acetylglucosaminidase from jack beans. More on the design: species or system Canavalia ensiformis.
Assay [4] can be described thus: Compound was tested for inhibition of alpha-mannosidase from jack beans; NI means no inhibition. Set-up: species or system Canavalia ensiformis.
For assay [5], the target named is T1, Beta-galactosidase. Description: Compound was tested for inhibition of beta-galactosidase from aspergillus niger; NI means no inhibition.
The subject of assay [6] is Alpha-glucosidase (Saccharomyces cerevisiae). In words: Compound was tested for % inhibition of alpha-glucosidase from yeast. To be noted: concentration not given here.
The test system of assay [7] is Canavalia ensiformis. In words: Compound was tested for % inhibition of alpha-mannosidase from jack beans. The note with it: concentration not given here.
For assay [8], the system named is Canavalia ensiformis. In words: Compound was tested for % inhibition of beta-N-acetylglucosaminidase from jack beans. To be noted: concentration not given here.
Assay [9] relates to alpha-galactosidase (Coffea arabica). Description: Compound was tested for inhibition of alpha-galactosidase from green coffee beans; NI means no inhibition.
Assay [10] deals with beta-glucosidase (Prunus dulcis). Description: Compound was tested for % inhibition of beta-glucosidase from sweet almonds. The note with it: concentration not given here.

SMILES strings stand for the structures.

For three molecules, Ki and inhibition results are on record in ChEMBL document CHEMBL1149975, “Synthesis of C2-symmetrical polyhydroxyazepanes as inhibitors of glycosidases” (Bioorg Med Chem Lett, 1996).

As usually defined, the Ki is a dissociation constant, usually derived from enzyme kinetics or from competition with a known ligand. Low values mean higher affinity, high ones lower affinity. One may read the inhibition as how much of the control response was suppressed. Higher therefore signals a strong effect.

As to `O[C@H]1[C@H](O)[C@@H](O)CNC[C@@H]1O`, the figures for the Ki (in [1]; at Beta-galactosidase [2]; in assay [3]) were 25.7 µM, 6.5 µM and 22.7 µM, respectively.

For the molecule `O[C@H]1[C@H](O)[C@H](O)CNC[C@H]1O`, the Ki result in [4] is “No inhibition”; at Beta-galactosidase [5], “No inhibition”; in assay [3], 4.6 µM.

Take `O[C@H]1[C@H](O)[C@H](O)CN(Cc2ccccc2)C[C@H]1O`: the inhibition in assay [6] worked out at 6%; with Canavalia ensiformis [7], 11%; in the assay on Canavalia ensiformis [8] it was 6%; in [10], 14%. The Ki result (in assay [9]; at Beta-galactosidase [5]) was “No inhibition” each time.
